Laboratory results taken from ChEMBL document CHEMBL1132276, “Development of predictive retention-activity relationship models of tricyclic antidepressants by micellar liquid chromatography” (J Med Chem, 1999).

Tests used:
[1] = Partition coefficient (logP); type: physicochemical; conditions: octanol/water
[2] = log P value at pH 7.4; type: physicochemical; conditions: buffer
[3] = Protonation constant by using Brij35 as a medium; type: ADME
[4] = log k (capacity factor) was measured by micellar liquid chromatography in Brij35 medium; conditions: 0.04 M Brij35
[5] = Half life period is estimated; type: ADME
[6] = Volume of distribution in the plasma fluid was determined; type: ADME, organism-based
[7] = Protonation constant of the compound.; type: ADME
[8] = Compound was tested for its binding affinity towards brain (Hippocampus) Adenylate cyclase; parameters: species or system Cavia porcellus
[9] = Compound was tested for its binding affinity towards brain (neocortex) Adenylate cyclase; parameters: species or system Cavia porcellus
Histamine H2 receptor = Histamine H2 receptor (Cavia porcellus, UniProt P47747); experiment: Inhibitory activity against brain adenylate cyclase Histamine H2 receptor; type: functional
Histamine H2 receptor, sequence (P47747 whole entry): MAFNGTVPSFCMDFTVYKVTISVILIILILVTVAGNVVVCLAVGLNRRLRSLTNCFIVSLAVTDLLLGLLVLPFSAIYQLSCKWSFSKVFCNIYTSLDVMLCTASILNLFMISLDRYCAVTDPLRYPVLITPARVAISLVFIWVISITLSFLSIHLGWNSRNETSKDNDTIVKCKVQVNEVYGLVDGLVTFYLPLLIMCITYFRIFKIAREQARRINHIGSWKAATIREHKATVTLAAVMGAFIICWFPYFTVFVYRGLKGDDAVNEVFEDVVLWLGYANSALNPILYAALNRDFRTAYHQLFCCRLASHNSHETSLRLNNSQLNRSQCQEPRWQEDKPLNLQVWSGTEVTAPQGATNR

physchem [10] = conditions: octanol/water
physchem [11] = conditions: buffer, pH 7.4
Description: log P values determined at pH 7.4

[12] = Therapeutic plasma levels for the compound was evaluated.; type: ADME, cell-free
Histamine H1 receptor = Histamine H1 receptor (Rattus norvegicus, UniProt P31390); experiment: Compound tested for its inhibitory activity against Histamine H1 receptor
Histamine H1 receptor, sequence (P31390 whole entry): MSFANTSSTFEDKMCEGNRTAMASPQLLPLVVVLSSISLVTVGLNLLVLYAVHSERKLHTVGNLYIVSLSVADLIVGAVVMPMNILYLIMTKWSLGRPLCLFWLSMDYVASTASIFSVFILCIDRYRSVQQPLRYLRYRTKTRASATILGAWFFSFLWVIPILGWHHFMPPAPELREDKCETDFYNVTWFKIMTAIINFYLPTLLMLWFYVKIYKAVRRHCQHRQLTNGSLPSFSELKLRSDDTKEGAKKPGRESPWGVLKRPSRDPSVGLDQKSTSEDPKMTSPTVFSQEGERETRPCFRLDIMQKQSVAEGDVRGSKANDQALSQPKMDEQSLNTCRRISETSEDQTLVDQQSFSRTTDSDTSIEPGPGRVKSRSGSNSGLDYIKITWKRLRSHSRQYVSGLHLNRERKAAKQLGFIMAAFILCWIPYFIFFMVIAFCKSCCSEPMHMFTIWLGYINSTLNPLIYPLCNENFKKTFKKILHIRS

[13] = Compound was tested for its inhibitory activity against Noradrenaline receptor; parameters: species or system Rattus norvegicus
[14] = molecular target: T1, Alpha-1A adrenergic receptor (Rattus norvegicus, UniProt P43140); experiment: Compound was tested for its inhibitory activity against Alpha-1 adrenergic receptor
T1 sequence (P43140 whole entry): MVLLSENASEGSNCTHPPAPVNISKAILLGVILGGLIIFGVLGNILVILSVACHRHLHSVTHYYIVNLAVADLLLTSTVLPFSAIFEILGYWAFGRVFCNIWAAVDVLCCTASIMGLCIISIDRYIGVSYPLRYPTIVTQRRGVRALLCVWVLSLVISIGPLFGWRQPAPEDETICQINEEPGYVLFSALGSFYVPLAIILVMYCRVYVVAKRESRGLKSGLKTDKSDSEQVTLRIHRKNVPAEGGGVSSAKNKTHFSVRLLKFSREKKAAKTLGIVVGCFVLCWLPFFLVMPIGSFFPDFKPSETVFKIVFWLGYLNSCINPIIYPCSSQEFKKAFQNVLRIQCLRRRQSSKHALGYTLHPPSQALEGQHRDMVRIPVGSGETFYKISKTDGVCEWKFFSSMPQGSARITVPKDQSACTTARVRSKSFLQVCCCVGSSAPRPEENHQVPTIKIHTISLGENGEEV

in vivo = conditions: plasma
Description: Plasma clearance for the compound was determined.

[15] = octanol/water
[16] = buffer, pH 7.4
Description: log P values determined at pH 7.4

[17] = molecular target: Serotonin (5-HT) receptor; experiment: Compound was tested for its inhibitory activity against 5-hydroxytryptamine receptor; type: protein assay, Rattus norvegicus

Row | Structure (SMILES) | logP [1] | logD [2] | pKa [3] | Log K [4] | half-life [5] | Vd [6] | pKa [7] | Ki [8] | Ki [9] | IC50 (Histamine H2 receptor) | logP (physchem [10]) | logD (physchem [11]) | T.P.L [12] | IC50 (Histamine H1 receptor) | IC50 [13] | IC50 [14] | clearance (in vivo) | logP [15] | logD [16] | IC50 [17]
1 | O=C(O)CCCCCCNC1c2ccccc2CCc2ccccc21 [AMINEPTINE] | 2.44 | 2.26 | 5.24 | 1.09 | – | – | – | – | – | – | – | – | – | – | – | – | – | – | – | –
2 | CN1CCN2c3ccccc3Cc3ccccc3C2C1 (stereo not given) [MIANSERIN] | – | – | – | 1.87 | 25 h | 16 L/kg | 7.1 | 65 nM | 71 nM | 880 nM | 4.26 | 4.08 | – | – | – | – | – | – | – | –
3 | CNCCCC12CCC(c3ccccc31)c1ccccc12 [MAPROTILINE] | – | – | – | 1.47 | – | – | 10.5 | – | – | – | 4.22 | 1.12 | – | – | – | – | – | – | – | –
4 | CN(C)CCCN1c2ccccc2CCc2ccccc21 [IMIPRAMINE] | – | – | – | 1.8 | – | 30 L/kg | – | 160 nM | 160 nM | 1900 nM | – | – | 275 ng/mL | 60 nM | 46 nM | – | – | – | – | –
5 | CNCCCN1c2ccccc2CCc2ccccc21 [DESIPRAMINE] | – | – | – | 1.46 | 37.5 h | 22 L/kg | – | 350 nM | 320 nM | 3800 nM | – | – | 212.5 ng/mL | – | 2 nM | – | – | – | – | –
6 | CNCCC=C1c2ccccc2CCc2ccccc21 [NORTRIPTYLINE] | – | – | – | 1.52 | 35.5 h | 35 L/kg | 9.7 | 450 nM | 280 nM | 7000 nM | 4.32 | 2.02 | – | 50 nM | 9 nM | 40 nM | 1320 mL/min | – | – | –
7 | CN(C)CCCN1c2ccccc2CCc2ccc(Cl)cc21 [CLOMIPRAMINE] | – | – | – | 1.89 | – | 13.5 L/kg | 9.38 | 55 nM | 43 nM | 720 nM | – | 3.32 | 90 ng/mL | – | 46 nM | – | 1210 mL/min | 5.19 | – | –
8 | c1ccc2c(c1)CCc1ccccc1N2C1CN2CCC1CC2 (stereo not given) [QUINUPRAMINE] | – | – | 7.85 | 1.62 | – | – | – | – | – | – | 4.94 | 1.36 | – | – | – | – | – | – | – | –
9 | CN1CCN(C2=Nc3ccccc3Oc3ccc(Cl)cc32)CC1 [LOXAPINE] | – | – | – | 1.86 | – | – | 6.6 | – | – | – | – | – | – | – | – | – | – | – | – | –
10 | Clc1ccc2c(c1)C(N1CCNCC1)=Nc1ccccc1O2 [AMOXAPINE] | – | – | – | 1.63 | – | – | 7.6 | – | – | – | 3.89 | – | – | – | – | – | – | – | 3.48 | –
11 | CN(C)CCC=C1c2ccccc2CSc2ccccc21 [DOTHIEPIN] | – | – | – | 1.74 | – | – | 9.25 | – | – | – | 4.52 | 2.66 | – | – | – | – | – | – | – | –
12 | CC(CN(C)C)CN1c2ccccc2CCc2ccccc21 (stereo not given) [TRIMIPRAMINE] | – | – | 6.77 | 1.86 | – | – | – | – | – | – | 4.73 | – | – | – | – | – | – | – | 4.64 | –
13 | CN(C)CCC=C1c2ccccc2CCc2ccccc21 [AMITRIPTYLINE] | – | – | – | 1.84 | 27.5 h | 15 L/kg | 9.42 | 53 nM | 60 nM | 660 nM | 4.64 | 2.62 | 180 ng/mL | 20 nM | 41 nM | 20 nM | 1200 mL/min | – | – | 44 nM
14 | CN(C)CC/C=C1/c2ccccc2COc2ccccc21 [DOXEPIN] | – | – | – | 1.69 | 16.5 h | – | 9 | 170 nM | 190 nM | 1600 nM | 3.88 | 2.27 | – | – | 65 nM | 10 nM | 850 mL/min | – | – | –
15 | CN(C)CCC=C1c2ccccc2C(C)(C)c2ccccc21 | – | – | – | 1.97 | – | – | 7.38 | – | – | – | 5.12 | 4.83 | – | – | – | – | – | – | – | –
